# Where a name gives a salt, the structure may show the parent alone.
# Tested on: not given
# Test: not given
# Details: not given
row,Compound,melting point
1,"CCOC(=O)Cn1c(C)c(C(=O)N2CC3CN(CCCN(C(=O)C4CCN(C(C)=O)CC4)c4ccc(C)c(Cl)c4)CC3C2)c(C)cc1=O (stereo not drawn) [III-1, [5-(5-{3-[(1-Acetyl-piperidine-4-carbonyl)-(3-chloro-4-methyl-phenyl)-amino]-propyl}-hexahydro-pyrrolo[3,4-c]pyrrole-2-carbonyl)-4,6-dimethyl-2-oxo-2H-pyridin-1-yl]-acetic acid ethyl ester]",88.2 to 89.1 °C

# Molecular target: T1, CCR5 (Homo sapiens, UniProt P51681)
# T1 construct: host or cells: CEM-NKr-CCR5-Luc
# T1 sequence (P51681 whole entry): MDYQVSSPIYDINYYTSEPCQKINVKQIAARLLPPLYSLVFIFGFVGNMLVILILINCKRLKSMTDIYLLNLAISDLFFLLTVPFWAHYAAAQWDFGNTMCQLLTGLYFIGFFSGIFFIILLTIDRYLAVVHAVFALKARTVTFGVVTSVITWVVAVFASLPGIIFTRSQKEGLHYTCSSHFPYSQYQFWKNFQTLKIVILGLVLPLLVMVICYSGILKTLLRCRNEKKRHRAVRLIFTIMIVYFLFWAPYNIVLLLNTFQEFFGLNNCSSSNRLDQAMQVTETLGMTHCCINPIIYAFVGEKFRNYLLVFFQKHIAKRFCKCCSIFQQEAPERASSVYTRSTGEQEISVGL
# Test: CCR5-Mediated CCF Assay
# Format: cell-based
# Details: Hela-R5 cells (gp160) co-cultured 24 hrs with CEM-NKr-CCR5-Luc cells, luciferase readout
# Experimental: CCF assay was performed as described before (C. Ji, J. Zhang, N. Cammack and S. Sankuratri 2006 J. Biomol. Screen. in press). Hela-R5 cells (express gp160 from R5-tropic virus and HIV-1 T at) were plated in 384 well white culture plates (BD Bioscience, Palo Alto, Calif.) at 7.5×10^3 cells per well in phenol red-free Dulbecco's Modified Eagle Medium (DMEM) supplemented with 10% FBS, 1× Pen-Strep, 300 μg/ml G418, 100 μg/ml hygromycin, and 1 μg/ml doxycycline (Dox) (BD Bioscience, Palo Alto, Calif.), using Multimek (Beckman, Fullerton, Calif.) and incubated at 37° C. overnight to induce the expression of gp160. Ten μl diluted compounds in medium containing 5% DMSO were added to the cells, followed by the addition of CEM-NKr-CCR5-Luc (obtained from NIH AIDS Research & Reference Reagents Program) that expresses CD4 and CCR5 and carries a HIV-2 long terminal repeat (LTR)-driven luciferase reporter gene at 1.5×10^4 cells/15 μl/well and incubated for 24 hrs. At the end of co-culture, 15 μl of Steady-Glo luciferase substrate was added into each well, and the cultures were sealed and gently shaken for 45 min. The luciferase activity were measured for 10 sec per well as luminescence by using 16-channel TopCount NXT (PerkinElmer, Shelton, Conn.) with 10 min dark adaptation and the readout is count per second (CPS). For the drug interaction experiments, small molecule compounds or antibodies were serially diluted in serum-free and phenol red-free RPMI containing 5% dimethyl sulfoxide (DMSO) (CalBiochem, La Jolla, Calif.) and 1× Pen-Strep. Five μl each of the two diluted compound or mAb to be tested for drug-drug interactions were added to the Hela-R5 cells right before the addition of target cells.
row,Compound,IC50
1,"Cc1nc(Oc2ccc(C(=O)OCc3ccccc3)cc2)nc(C)c1C(=O)N1CC2CN(CC[C@H](NC(=O)C3CCCC3)c3ccccc3)CC2C1 (stereo partly drawn) [Compound I-7, 4-(5-{5-[(S)-3-(Cyclopentanecarbonyl-amino)-3-phenyl-propyl]-hexahydro-pyrrolo[3,4-c]pyrrole-2-carbonyl}-4,6-dimethyl-pyrimidin-2-yloxy)-benzoic acid benzyl ester]",< 0.3 nM
2,"Cc1nc(Oc2cccc(C(=O)O)c2)nc(C)c1C(=O)N1CC2CN(CC[C@H](NC(=O)C3CCCC3)c3ccccc3)CC2C1 (stereo partly drawn) [Compound I-10, 3-(5-{5-[(S)-3-(cyclopentanecarbonyl-amino)-3-phenyl-propyl]-hexahydro-pyrrolo[3,4-c]pyrrole-2-carbonyl}-4,6-dimethyl-pyrimidin-2-yloxy)-benzoic acid, trifluoro acetic acid salt]",1.1 nM
3,"COC(=O)[C@@H](Oc1nc(C)c(C(=O)N2CC3CN(CC[C@H](NC(=O)C4CCCC4)c4ccccc4)CC3C2)c(C)n1)c1ccccc1 (stereo partly drawn) [Compound I-16, (S)-(5-{-5-[(S)-3-(Cyclopentanecarbonyl-amino)-3-phenyl-propyl]-hexahydro-pyrrolo[3,4-c]pyrrole-2-carbonyl}-4,6-dimethyl-pyrimidin-2-yloxy)-phenyl-acetic acid methyl ester]",1 nM
4,"Cc1nn(-c2ccc(C(F)(F)F)cn2)c(C)c1C(=O)N1CC2CN(CC[C@H](NC(=O)C3CCOC3)c3cccc(F)c3)CC2C1 (stereo partly drawn) [II-3, Tetrahydro-furan-3-carboxylic acid [(S)-3-{5-[3,5-dimethyl-1-(5-trifluoromethyl-pyridin-2-yl)-1H-pyrazole-4-carbonyl]-hexahydro-pyrrolo[3,4-c]pyrrol-2-yl}-1-(3-fluoro-phenyl)-propyl]-amide]",< 0.3 nM
5,"Cc1cc(=O)n(C)c(C)c1C(=O)N1CC2CN(CC[C@H](NC(=O)C3CCCC3)c3ccccc3)CC2C1 (stereo partly drawn) [III-13, Cyclopentanecarboxylic acid {(S)-1-phenyl-3-[-5-(1,2,4-trimethyl-6-oxo-1,6-dihydro-pyridine-3-carbonyl)-hexahydro-pyrrolo[3,4-c]pyrrol-2-yl]-propyl}-amide]",1.4 nM

# Results, then the compound that gave them:
row,IC50,Compound
1,0.5 nM,"Cc1nc(OCC(=O)OCc2ccccc2)nc(C)c1C(=O)N1CC2CN(CC[C@H](NC(=O)C3CCCC3)c3ccccc3)CC2C1 (stereo partly drawn) [Compound I-3, (5-{5-[(S)-3-(Cyclopentanecarbonyl-amino)-3-phenyl-propyl]-hexahydro-pyrrolo[3,4-c]pyrrole-2-carbonyl}-4,6-dimethyl-pyrimidin-2-yloxy)-acetic Acid Benzyl Ester]"
2,0.9 nM,"Cc1nc(Oc2ccc(C(=O)O)cc2)nc(C)c1C(=O)N1CC2CN(CC[C@H](NC(=O)C3CCCC3)c3ccccc3)CC2C1 (stereo partly drawn) [Compound I-8, 4-(5-{5-[(S)-3-(cyclopentanecarbonyl-amino)-3-phenyl-propyl]-hexahydro-pyrrolo[3,4-c]pyrrole-2-carbonyl}-4,6-dimethyl-pyrimidin-2-yloxy)-benzoic acid trifluoro-acetate salt]"
3,< 0.3 nM,"CCOC(=O)c1cccc(Oc2nc(C)c(C(=O)N3CC4CN(CC[C@H](NC(=O)C5CCCC5)c5ccccc5)CC4C3)c(C)n2)c1 (stereo partly drawn) [Compound I-9, 3-(5-{5-[(S)-3-(Cyclopentanecarbonyl-amino)-3-phenyl-propyl]-hexahydro-pyrrolo[3,4-c]pyrrole-2-carbonyl}-4,6-dimethyl-pyrimidin-2-yloxy)-benzoic acid ethyl ester]"
4,0.4 nM,"COc1nc(C)c(C(=O)N2CC3CN(CC[C@H](NC(=O)C4CCCC4)c4ccccc4)CC3C2)c(C)n1 (stereo partly drawn) [Compound I-19, Cyclopentanecarboxylic Acid {(S)-3-[5-(2-methoxy-4,6-dimethyl-pyrimidine-5-carbonyl)-hexahydro-pyrrolo[3,4-c]pyrrol-2-yl]-1-phenyl-propyl}-amide]"
5,< 0.3 nM,"Cc1nc(NS(C)(=O)=O)nc(C)c1C(=O)N1CC2CN(CC[C@H](NC(=O)C3CCCC3)c3ccccc3)CC2C1 (stereo partly drawn) [Compound I-42, Cyclopentanecarboxylic Acid {(S)-3-[5-(2-methanesulfonylamino-4,6-dimethyl-pyrimidine-5-carbonyl)-hexahydro-pyrrolo[3,4-c]pyrrol-2-yl]-1-phenyl-propyl}-amide]"
6,1.1 nM,"Cc1cc(=O)n(C)c(C)c1C(=O)N1CC2CN(CC[C@H](NC(=O)C3CCC(F)(F)CC3)c3ccccc3)CC2C1 (stereo partly drawn) [III-15, 4,4-difluoro-cyclohexanecarboxylic acid {(S)-1-phenyl-3-[5-(1,2,4-trimethyl-6-oxo-1,6-dihydro-pyridine-3-carbonyl)-hexahydro-pyrrolo[3,4-c]pyrrol-2-yl]-propyl}-amide]"
